biological target: T1, GLP-1R (Homo sapiens, UniProt P43220); assay: EC20 GLP-1(9-36) PAM cAMP assay: dose response of compound in the presence of fixed concentration of GLP-1(9-36); type: cell-based; settings: GLP-1R CRE-bla CHO-K1 cells, compound dose response with fixed concentration of GLP-1(9-36), read-out: EC20 GLP-1(9-36) PAM EC50
T1 construct: host or cells: GLP-1R CRE-bla CHO-K1 cells
Method in brief: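 GLP-1R CRE-bla CHO-K1 cells treated 30 min at 37 °C with 12-point compound dose response plus fixed EC20 GLP-1(9-36), with IBMX, in HBSS/HEPES/0.1% BSA pH 7.4. Total cAMP measured by luminescent detection against standard curve; EC50 and Emax from non-linear regression.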

T1 sequence (P43220 24-463): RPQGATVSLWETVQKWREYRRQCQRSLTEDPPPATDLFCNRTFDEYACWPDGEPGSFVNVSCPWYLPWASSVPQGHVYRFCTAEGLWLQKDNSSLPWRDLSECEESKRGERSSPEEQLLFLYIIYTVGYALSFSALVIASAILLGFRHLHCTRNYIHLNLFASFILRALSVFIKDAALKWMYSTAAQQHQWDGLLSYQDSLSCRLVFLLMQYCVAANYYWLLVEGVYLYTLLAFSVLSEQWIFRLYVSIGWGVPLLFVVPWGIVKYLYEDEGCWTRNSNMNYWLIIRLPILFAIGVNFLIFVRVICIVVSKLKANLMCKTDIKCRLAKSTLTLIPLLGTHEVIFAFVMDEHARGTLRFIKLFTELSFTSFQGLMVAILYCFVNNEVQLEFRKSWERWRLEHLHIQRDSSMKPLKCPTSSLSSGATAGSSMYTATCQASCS
T1 sequence (P01275 100-127 partner limits assumed): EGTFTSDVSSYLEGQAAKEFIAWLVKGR

| Compound | EC50 [nM] |
| --- | --- |
| CC[C@H]1CC[C@H](c2ccc(-c3cnc(-c4ccc(C[C@H](NC(=O)c5ccc(C(C)(C)C)s5)C(=O)N[C@@H](CC(N)=O)C(=O)O)cc4)nc3)cc2)CC1 [Compound 1325] | < 800 |
| CCC[C@H]1CC[C@@H](N2CCN(c3cnc(-c4ccc(C[C@H](NC(=O)c5ccc(C(C)(C)C)s5)C(=O)N5CC(C(=O)O)C5)cc4)nc3)CC2)CC1 [Compound 1436] | 800 to 2500 |
| CCCc1ccc(-c2ccc(-c3cnc(-c4ccc(C[C@H](NC(=O)c5ccc(C(C)C)cc5)C(=O)N5CC(C(=O)O)C5)cc4)nc3)c(F)c2)cc1 [Compound 1408] | < 800 |
| C[C@@H](NC(=O)[C@H](Cc1ccc(-c2ncc(-c3cccc(N4CCCCC4)c3)cn2)cc1)NC(=O)c1ccc(C(C)(C)C)s1)C(=O)O [Compound 1284] | 800 to 2500 |
| C[C@@H](NC(=O)[C@H](Cc1ccc(-c2ncc(/C=C/c3cccc(C(F)(F)F)c3)cn2)cc1)NC(=O)c1ccc(C(C)(C)C)s1)C(=O)O [Compound 1251] | 5000 to 10000 |
| CCC[C@H]1CC[C@H](C2CCN(c3cnc(-c4ccc(C[C@H](NC(=O)c5ccc(C(C)(C)C)s5)C(=O)N5CCC[C@H]5C(=O)O)cc4)nc3)CC2)CC1 [Compound 1419] | < 800 |
| CCC[C@H]1CC[C@H](N2CCN(c3cnc(-c4ccc(CC(NC(=O)c5ccc(C(C)(C)C)s5)C(=O)N5CC(C(=O)O)C5)cc4)nc3)C(=O)C2)CC1 (stereo partly drawn) [Compound 1420] | 2500 to 5000 |
| CCOc1ccc(-c2cnc(-c3ccc(C[C@H](NC(=O)c4ccc(C(C)(C)C)s4)C(=O)O)cc3)nc2)cc1 [Compound 1349] | 5000 to 10000 |
| CC[C@H]1CC[C@H](c2ccc(-c3cnc(-c4ccc(C[C@H](NC(=O)c5ccc(N(C)C)cc5)C(=O)O)cc4)nc3)cc2)CC1 [Compound 1380] | 800 to 2500 |
| CCCC1CCC(N2CC=C(c3cnc(-c4ccc(C[C@H](NC(=O)c5ccc(C(C)(C)C)s5)C(=O)N5CC(C(=O)O)C5)cc4)nc3)CC2)CC1 (stereo partly drawn) [Compound 1434] | 5000 to 10000 |
| CCC[C@H]1CC[C@H](C2CCN(c3cnc(-c4ccc(C[C@H](NC(=O)c5ccc(C(C)C)s5)C(=O)N5CC(C(=O)O)C5)cc4)nc3)CC2)CC1 [Compound 1534] | < 800 |
| COc1ccc(C2CCN(c3cnc(-c4ccc(CC(NC(=O)c5ccc(C(C)(C)C)s5)C(=O)N5CC(C(=O)O)C5)cc4)nc3)CC2)c(C)c1 (stereo not drawn) [Compound 1483] | 800 to 2500 |
| CCCCc1ccc(/C=C/c2cnc(-c3ccc(C[C@H](NC(=O)c4ccc(C(C)(C)C)s4)C(=O)N[C@H](C)C(=O)O)cc3)nc2)cc1 [Compound 1262] | 800 to 2500 |
| CC(C)(C)c1ccc(C(=O)N[C@@H](Cc2ccc(-c3ncc(N4CCC(c5ccccc5)CC4)cn3)cc2)C(=O)N2CC(C(=O)O)C2)s1 [Compound 1426] | 800 to 2500 |
| CCCc1ccc(C2CCN(c3cnc(-c4ccc(C[C@H](NC(=O)c5ccc(C(C)(C)C)s5)C(=O)N5CC(C(=O)O)C5)cc4)nc3)CC2)cn1 [Compound 1498] | 800 to 2500 |
| CCCc1ccc(-c2ccc(-c3cnc(-c4ccc(C[C@H](NC(=O)c5ccc(OC(C)(C)C)cc5)C(=O)N5CC(C(=O)O)C5)cc4)nc3)c(F)c2)cc1 [Compound 1403] | < 800 |

same assay, conditions: dose response of compound in presence of fixed concentration of GLP-1(9-36), GLP-1R CRE-bla CHO-K1 cells, read-out: EC20 GLP-1(9-36) PAM EC50

| Compound | EC50 [nM] |
| --- | --- |
| CCCCCCCOc1ccc(-c2cnc(-c3ccc(C[C@H](NC(=O)c4ccc(C(C)(C)C)cc4)C(=O)NC(C(=O)O)c4cccs4)cc3)nc2)cc1 (stereo partly drawn) [Compound 455] | < 800 |
| CCCCCCCOc1ccc(-c2cnc(-c3ccc(C[C@H](NC(=O)c4ccc(C(C)(C)C)cc4)C(=O)N[C@@H](CC(=O)OCc4ccccc4)C(=O)O)cc3)nc2)cc1 [Compound 502, (S)-4-(benzyloxy)-2-((S)-2-(4-(tert-butyl)benzamido)-3-(4-(5-(4-(heptyloxy)phenyl)pyrimidin-2-yl)phenyl)propanamido)-4-oxobutanoic acid] | < 800 |
| CC(C)[C@H]1CC[C@@H](c2ccc(-c3cnc(-c4ccc(C[C@H](NC(=O)c5ccc(C(C)(C)C)s5)C(=O)N5CC(C(=O)O)C5)cc4)nc3)cc2)CC1 [Compound 1179] | < 800 |
| CC(C)(C)c1ccc(C(=O)N[C@@H](Cc2ccc(-c3ncc(-c4nc(CCc5ccccc5)no4)cn3)cc2)C(=O)NCCC(=O)O)cc1 [Compound 746] | 2500 to 5000 |
| CCCCCCCOc1ccc(-c2cnc(-c3ccc(C[C@H](NC(=O)c4ccc(C(C)(C)C)cc4)C(=O)NCCC(=O)O)cc3)nc2)cc1Cl [Compound 702] | 800 to 2500 |
| CCCCCCCOc1ccc(-c2cnc(-c3ccc(C[C@H](NC(=O)c4ccc(C(C)(C)C)cc4)C(=O)NC(Cc4ccc(OC)cc4)C(=O)O)cc3)nc2)cc1 (stereo partly drawn) [Compound 568] | < 800 |
| CCCCCCCOc1ccc(-c2cnc(-c3ccc(C[C@H](NC(=O)c4ccc(C(C)(C)C)s4)C(=O)N4CC(c5nn[nH]n5)C4)cc3)nc2)cc1 [Compound 978] | 800 to 2500 |
| COCCc1ccc(OCc2ccc(-c3cnc(-c4ccc(C[C@H](NC(=O)c5ccc(C(C)(C)C)s5)C(=O)N[C@H](C)C(=O)O)cc4)nc3)cc2)cc1 [Compound 1053] | 2500 to 5000 |
| CCCCCCCOc1ccc(-c2cnc(-c3ccc(C[C@H](NC(=O)c4ccc(OCC)cc4)C(=O)N4CC(C(=O)O)C4)cc3)nc2)cc1 [Compound 1114] | 800 to 2500 |
| CC[C@H]1CC[C@H](c2ccc(-c3cnc(-c4ccc(C[C@H](NC(=O)c5ccc(C(C)(C)C)s5)C(=O)N5CCC[C@H]5C(=O)O)cc4)nc3)cc2)CC1 [Compound 1128, ((S)-2-(5-(tert-butyl)thiophene-2-carboxamido)-3-(4-(5-(4-((1r,4r)-4-ethylcyclohexyl)phenyl)pyrimidin-2-yl)phenyl)propanoyl)-L-proline] | < 800 |
| CC(C)(C)c1ccc(C(=O)N[C@@H](Cc2ccc(-c3ncc(-c4ccc([C@H]5CC[C@@H](C(C)(C)C)CC5)cc4)cn3)cc2)C(=O)N2CC(C(=O)O)C2)s1 [Compound 1182] | < 800 |
| CCc1ccc(C(=O)N[C@@H](Cc2ccc(-c3ncc(-c4ccc([C@H]5CC[C@H](CC)CC5)cc4)cn3)cc2)C(=O)N2CC(C(=O)O)C2)s1 [Compound 1153] | < 800 |
| CC(C)(C)c1ccc(C(=O)N[C@@H](Cc2ccc(-c3ncc(-c4ccc(-c5ccccc5)cc4)cn3)cc2)C(=O)N2CCC[C@H]2C(=O)O)s1 [Compound 1124] | < 800 |
| Cc1ccc(-c2ccc(-c3cnc(-c4ccc(C[C@H](NC(=O)c5ccc(C(C)(C)C)s5)C(=O)N[C@H](C)C(=O)O)cc4)nc3)cc2)cc1C [Compound 1138] | < 800 |
| CCC(CC)Oc1ccc(-c2cnc(-c3ccc(C[C@H](NC(=O)c4ccc(C(C)(C)C)s4)C(=O)NC(C(=O)O)C(O)c4ccccc4)cc3)nc2)cc1 (stereo partly drawn) [Compound 935] | 2500 to 5000 |
| CCCCCCCOc1ccc(-c2cnc(-c3ccc(C[C@H](NC(=O)c4ccc(C(C)(C)C)s4)C(=O)NS(=O)(=O)CCOC)cc3)nc2)cc1 [Compound 435] | 800 to 2500 |

| Compound | EC50 [nM] |
| --- | --- |
| CC[C@H]1CC[C@H](c2ccc(-c3cnc(-c4ccc(C[C@H](NC(=O)c5ccc(C(C)(C)C)cc5)C(=O)N5CC(C(=O)O)C5)cc4)nc3)cc2)CC1 [Compound 1170] | < 800 |
| CCCCCCCOc1ccc(-c2cnc(-c3ccc(C[C@H](NC(=O)c4ccc(C(C)(C)C)cc4)C(=O)NC(CC(=O)O)c4cccc(O)c4)cc3)nc2)cc1 (stereo partly drawn) [Compound 538] | 5000 to 10000 |
| CCCCCCCOc1ccc(-c2cnc(-c3ccc(C[C@H](NC(=O)c4ccc(CC(C)C)cc4)C(=O)N4CC(C(=O)O)C4)cc3)nc2)cc1 [Compound 1116] | 800 to 2500 |
| CC(C)(C)c1ccc(C(=O)N[C@@H](Cc2ccc(-c3ncc(-c4ccc(OCC(F)(F)F)cc4)cn3)cc2)C(=O)NC(C(=O)O)C(O)c2ccccc2)s1 (stereo partly drawn) [Compound 928] | 2500 to 5000 |
| CC[C@H]1CC[C@H](c2ccc(-c3cnc(-c4ccc(C[C@H](NC(=O)c5ccc(CC(C)C)cc5)C(=O)N5CC(C(=O)O)C5)cc4)nc3)cc2)CC1 [Compound 1155] | < 800 |
| CC[C@H]1CC[C@H](c2ccc(-c3cnc(-c4ccc(C[C@H](NC(=O)c5cnc(C(C)(C)C)nc5)C(=O)N5CC(C(=O)O)C5)cc4)nc3)cc2)CC1 [Compound 1164] | < 800 |
| CCCCCCCOc1ccc(-c2cnc(-c3ccc(C[C@H](NC(=O)c4ccc(C(C)(C)C)cc4)C(=O)NC(Cc4ccc(Cl)cc4)C(=O)O)cc3)nc2)cc1 (stereo partly drawn) [Compound 564] | 800 to 2500 |
| Cc1ccccc1-c1ccc(-c2cnc(-c3ccc(C[C@H](NC(=O)c4ccc(C(C)(C)C)s4)C(=O)N[C@H](C)C(=O)O)cc3)nc2)cc1 [Compound 1023] | 2500 to 5000 |
| CCCCCCCOc1ccc(-c2cnc(-c3ccc(CC(NC(=O)c4ccc(C(C)(C)C)s4)C(=O)N[C@H](C(=O)O)C(C)C)cc3)nc2)cc1 (stereo partly drawn) [Compound 407] | < 800 |
| CCCCCCCOc1ccc(-c2cnc(-c3ccc(C[C@H](NC(=O)c4ccc(C(C)(C)C)s4)C(=O)NC(C(=O)O)[C@@H](O)c4ccccc4)cc3)nc2)cc1 (stereo partly drawn) [Compound 651] | < 800 |
| CCCCCCCCOc1ccc(-c2cnc(-c3ccc(C[C@H](NC(=O)c4ccc(C(C)(C)C)cc4)C(=O)NCCC(=O)O)cc3)nc2)cc1 [Compound 712] | 800 to 2500 |
| CCCCCCCOc1ccc(-c2cnc(-c3ccc(C[C@H](NC(=O)c4ccc(C(C)(C)C)s4)C(=O)N[C@@H](CC(=O)N(C)CCN)C(=O)O)cc3)nc2)cc1 [Compound 519] | 800 to 2500 |
| C[C@@H](NC(=O)[C@H](Cc1ccc(-c2ncc(-c3ccc(C4=CCC(C)(C)CC4)cc3)cn2)cc1)NC(=O)c1ccc(C(C)(C)C)s1)C(=O)O [Compound 1150] | < 800 |
| CCCCCCCOc1ccc(-c2cnc(-c3ccc(C[C@H](NC(=O)c4ccc(C(C)(C)C)cc4)C(=O)N[C@@H](CC(=O)N[C@@H](C)C(=O)O)C(=O)O)cc3)nc2)cc1 [Compound 483] | 800 to 2500 |
| CCCCCCCOc1ccc(-c2cnc(-c3ccc(C[C@H](NC(=O)c4ccc(C(C)(C)C)s4)C(=O)N[C@@H](Cc4ccccc4)C(=O)O)cc3)nc2)cc1 [Compound 648] | 800 to 2500 |
| CCCCCCCOc1ccc(-c2cnc(-c3ccc(C[C@H](NC(=O)c4ccc(C(C)(C)C)cc4)C(=O)N4CC(OC)CC4C(=O)O)cc3)nc2)cc1 (stereo partly drawn) [Compound 624] | < 800 |

Source: patent publication US10034886B2, “GLP-1 receptor modulators” (Celgene International II SÀRL, priority 2014, dated 2018)
